The values that follow come from patent US9232796B2, “Herbicidal compositions comprising 4-amino-3-chloro-5-fluoro-6-(4-chloro-2-fluoro-3-methoxyphenyl) pyridine-2-carboxylic acid or a derivative thereof and acetyl-CoA carboxylase (ACCase) inhibitors” (DOW AGROSCIENCES LLC, priority 2012, dated 2016).

For one assay, the system named is LOLMU. Briefly: Example IV postemergence foliar-applied, greenhouse, cereal crops weeds. The assay is classed as in vivo, Lolium multiflorum Lam. The method, then:
(§1) Seeds of the desired test plant species were planted in Sun Gro MetroMix® 306 planting mixture, which typically has a pH of 6.0 to 6.8 and an organic matter content of about 30 percent, in plastic pots with a surface area of 103.2 square centimeters (cm^2). When required to ensure good germination and healthy plants, a fungicide treatment and/or other chemical or physical treatment was applied. The plants were grown for 7-36 days in a greenhouse with an approximate 14 hour photoperiod which was maintained at about 18° C. during the day and about 17° C. during the night. Nutrients and water were added on a regular basis and supplemental lighting was provided with overhead metal halide 1000-Watt lamps as necessary. The plants were employed for testing when they reached the second or third true leaf stage.
(§2) Treatments consisted of the benzyl ester of 4-amino-3-chloro-5-fluoro-6-(4-chloro-2-fluoro-3-methoxy-phenyl)pyridine-2-carboxylic acid (Compound A), formulated as an SC, a second cereal herbicide alone and then both in combination.
(§3) Other herbicidal components were applied on an active ingredient basis and included acetyl-CoA carboxylase (ACCase)-inhibiting herbicides clodinafop-propargyl, fenoxaprop-P-ethyl, pinoxaden and tralkoxydim.
(§4) Measured aliquots of benzyl ester of 4-amino-3-chloro-5-fluoro-6-(4-chloro-2-fluoro-3-methoxy-phenyl)pyridine-2-carboxylic acid (Compound A) were placed in 25 milliliter (mL) glass vials and diluted in a volume of 1.25% (v/v) Agri-Dex® crop oil concentrate to obtain stock solutions. Compound requirements are based upon a 12 mL application volume at a rate of 187 liters per hectare (L/ha). Spray solutions of the second cereal herbicide and experimental compound mixtures were prepared by adding the stock solutions to the appropriate amount of dilution solution to form 12 mL spray solution with active ingredients in two- and three-way combinations. Formulated compounds were applied to the plant material with an overhead Mandel track sprayer equipped with an 8002E nozzle calibrated to deliver 187 L/ha over an application area of 0.503 square meters (m^2) at a spray height of 18 inches (46 cm) above average plant canopy. Control plants were sprayed in the same manner with the solvent blank.
(§5) The treated plants and control plants were placed in a greenhouse as described above and watered by sub-irrigation to prevent wash-off of the test compounds. After 20-22 days, the condition of the test plants as compared with that of the control plants was determined visually and scored on a scale of 0 to 100 percent where 0 corresponds to no injury and 100 corresponds to complete kill.
(§6) Colby's equation was used to determine the herbicidal effects expected from the mixtures (Colby, S. R. 1967. Calculation of the synergistic and antagonistic response of herbicide combinations. Weeds 15:20-22.).
(§7) The following equation was used to calculate the expected activity of mixtures containing two active ingredients, A and B: Expected=A+B−(A×B/100)

Another assay concerns KCHSC. The description is as above. The assay is classed as in vivo, Kochia scoparia (L.) Schrad. How it is done: as §1, with “When required to ensure good germination and healthy plants, a fungicide treatment and/or other chemical or physical treatment was applied.” left out
as §2, §3
as §4, with “Spray solutions of the second cereal herbicide and experimental compound mixtures were prepared by adding the stock solutions to the appropriate amount of dilution solution to form 12 mL spray solution with active ingredients in two- and three-way combinations.” left out
as §5, §6, §7

The subject of another assay is AVEFA. Described as above. The assay is classed as in vivo, Avena fatua L. The method, then: as §1, §2, §3, §4
(§8) The treated plants and control plants were placed in a greenhouse as described above and watered by sub-irrigation to prevent wash-off of the test compounds. After 20-22 days, the condition of the test plants as compared with that of the control plants was determined visually and scored on a scale of 0 to 100 percent where 0 corresponds to no injury and 100 corresponds to complete kill. […]

In a further assay the test system is CYPIR. Briefly: Example I postemergence foliar-applied, greenhouse, direct seeded rice weeds. The assay is classed as in vivo, Cyperus iria L. An excerpt:
Seeds or nutlets of the desired test plant species were planted in a soil matrix prepared by mixing a loam or sandy loam soil (e.g., 28.6 percent silt, 18.8 percent clay, and 52.6 percent sand, with a pH of about 5.8 and an organic matter content of about 1.8 percent) and calcareous grit in an 80 to 20 ratio. The soil matrix was contained in plastic pots with a volume of 1 quart and a surface area of 83.6 square centimeters (cm^2). When required to ensure good germination and healthy plants, a fungicide treatment and/or other chemical or physical treatment was applied. The plants were grown for 8-22 days in a greenhouse with an approximate 14 hr. photoperiod which was maintained at about 29° C. during the day and 26° C. during the night. Nutrients (Peters Excel® 15-5-15 5-Ca 2-Mg and iron chelate) were applied in the irrigation solution as needed and water was added on a regular basis. Supplemental lighting was provided with overhead metal halide 1000-Watt lamps as necessary. The plants were employed for testing when they reached the first through fourth true leaf stage.
Treatments consisted of the acid or esters of 4-amino-3-chloro-5-fluoro-6-(4-chloro-2-fluoro-3-methoxy-phenyl)pyridine-2-carboxylic acid (Compound A), each formulated as an SC (suspension concentrate), and various herbicidal components alone and in combination.
Other herbicidal components were applied on an acid equivalent (ae) or active ingredient (ai) basis and included acetyl coA carboxylase (ACCase)-inhibiting herbicides (cyclohexanedione and aryloxyphenoxypropionate chemical classes) cyhalofop-butyl formulated as Clincher® SF (285 gr ai/L EC), diclofop-methyl formulated as Hoelon® 3EC, fenoxaprop-p-ethyl+isoxadifen-ethyl formulated as RiceStar® HT (0.58 lb./gal EC), fenoxaprop-p-ethyl+mefenpyr diethyl formulated as Puma® IEC, metamifop formulated as Metamifop EC, haloxyfop-methyl formulated as Gallant Super®, fluazifop-p-butyl formulated as Fusilade® DX, quizalofop-p-ethyl formulated as Assure® II, profoxydim formulated as Aura® 20EC, clethodim applied as Intensity®, sethoxydim formulated as Poast®, and tralkoxydim formulated as Achieve®.
Treatment requirements were calculated based upon the rates being tested, the concentration of active ingredient or acid equivalent in the formulation, and a 12 mL application volume at a rate of 187 L/ha.
For treatments comprised of formulated compounds, measured amounts of compounds were placed individually in 25 mL glass vials and diluted in a volume of 1.25% (v/v) Agri-Dex® crop oil concentrated to obtain 12× stock solutions. […] Application solutions were prepared by adding an appropriate amount of each stock solution (e.g., 1 mL) and diluted to the appropriate final concentrations with the addition of 10 mL of an aqueous mixture of 1.25% (v/v) crop oil concentrate so that the final spray solutions contained 1.25+/−0.05% (v/v) crop oil concentrate.
All stock solutions and applications solutions were visually inspected for compound compatibility prior to application. Spray solutions were applied to the plant material with an overhead Mandel track sprayer equipped with a 8002E nozzles calibrated to deliver 187 L/ha over an application area of 0.503 m^2 at a spray height of 18 to 20 inches (46 to 50 cm) above average plant canopy height. Control plants were sprayed in the same manner with the solvent blank.
The treated plants and control plants were placed in a greenhouse as described above and watered by sub-irrigation to prevent wash-off of the test compounds. After approximately 3 weeks, the condition of the test plants as compared with that of the untreated plants was determined visually and scored on a scale of 0 to 100 percent where 0 corresponds to no injury or growth inhibition and 100 corresponds to complete kill. […]

The next assay has as its system ALOMY. Briefly: Example IV postemergence foliar-applied, greenhouse, cereal crops weeds. The assay is classed as in vivo, Alopecurus myosuroides Huds. The method, then:
as §1, §2, §3, §4, §8

Another assay deals with APESV. The assay is described as above. The assay is classed as in vivo, Apera spica-venti (L.) Beauv. How it is done:
as §1, with “When required to ensure good germination and healthy plants, a fungicide treatment and/or other chemical or physical treatment was applied.” left out
as §2, §3
as §4, with “Spray solutions of the second cereal herbicide and experimental compound mixtures were prepared by adding the stock solutions to the appropriate amount of dilution solution to form 12 mL spray solution with active ingredients in two- and three-way combinations.” left out
as §5, §6, §7

Another assay concerns PHAMI. The description is as above. The assay is classed as in vivo, Phalaris minor Retz. How it is done: as §1, with “When required to ensure good germination and healthy plants, a fungicide treatment and/or other chemical or physical treatment was applied.” left out
as §2, §3
as §4, with “Spray solutions of the second cereal herbicide and experimental compound mixtures were prepared by adding the stock solutions to the appropriate amount of dilution solution to form 12 mL spray solution with active ingredients in two- and three-way combinations.” left out
as §5, §6, §7

Regarding `CCO/N=C(/CC)C1=C(O)CC(c2c(C)cc(C)cc2C)CC1=O` (stereo not drawn) [Tralkoxydim, 2-[1-(ethoxyimino)propyl]-3-hydroxy-5-(2,4,6-trimethylphenyl)-2-cyclohexen-1-one], the “Visual Weed Control (%) - 21 DAA LOLMU Obs” value in the assay on LOLMU (Tralkoxydim 50 gai/ha) is reported as 86%; with LOLMU (Tralkoxydim 100 gai/ha), 96%. Moreover, the entries for the “Visual Weed Control (%) - 21 DAA KCHSC Obs” value in the assay on KCHSC (Tralkoxydim 50 gai/ha) and with KCHSC (Tralkoxydim 100 gai/ha) were 10% and 0%, respectively. Also, the “Visual Weed Control (%) - 21 DAA AVEFA Obs” value came out at 78% with AVEFA (Tralkoxydim 50 gai/ha) and 99% with AVEFA (Tralkoxydim 100 gai/ha). Further, the “Visual Weed Control (%) - 22 DAA CYPIR Obs” value in the assay on CYPIR (100 gai/ha) and in the assay with CYPIR (200 gai/ha) was 0% in each case.
With `C#CCOC(=O)[C@@H](C)Oc1ccc(Oc2ncc(Cl)cc2F)cc1` [Clodinafop-propargyl, 2-propynyl(2R)-2-[4-[(5-chloro-3-fluoro-2-pyridinyl)oxy]phenoxy]propanoate], the “Visual Weed Control (%) - 21 DAA ALOMY Obs” value in the assay with ALOMY (Clodinafop-propargyl 15 gai/ha) is listed as 80%; with ALOMY (Clodinafop-propargyl 30 gai/ha), 82%. Besides, the “Visual Weed Control (%) - 21 DAA APESV Obs” value is 15% with APESV (Clodinafop-propargyl 15 gai/ha) and 68% with APESV (Clodinafop-propargyl 30 gai/ha). For the same compound, the “Visual Weed Control (%) - 21 DAA LOLMU Obs” value in the assay on LOLMU (Clodinafop-propargyl 15 gai/ha) is on record as 60%; in the assay on LOLMU (Clodinafop-propargyl 30 gai/ha), 48%. Further, the figures for the “Visual Weed Control (%) - 21 DAA KCHSC Obs” value in the assay with KCHSC (Clodinafop-propargyl 15 gai/ha) and in the assay with KCHSC (Clodinafop-propargyl 30 gai/ha) were 0% and 10%, respectively. Also, the “Visual Weed Control (%) - 21 DAA PHAMI Obs” value came out at 48% in the assay on PHAMI (Clodinafop-propargyl 15 gai/ha) and 55% in the assay with PHAMI (Clodinafop-propargyl 30 gai/ha).
